From the NIST ThermoML archive (doi:10.1016/j.tca.2018.07.016)
Values joined by “and” are separate entries in the source; they are usually repeats but may differ in a detail not shown here. Equal entries are not always repeated.

Conditions: Liquid, Transpiration method

C1CCCNCC1 [azacycloheptane]
Conditions	vapor or sublimation pressure [kPa]
275.3 K	0.2584
278.3 K	0.3225
281 K	0.3957
284.2 K	0.4858
287.3 K	0.604
290.2 K	0.7427
293.2 K	0.8989
296.2 K	1.051
302.2 K	1.525
305.2 K	1.824
308.1 K	2.177
311.2 K	2.409
314.2 K	3.025
317.2 K	3.485
321.2 K	4.037

C1CCCNCCC1 [heptamethyleneimine]
Conditions	vapor or sublimation pressure
276.1 K	0.08722 kPa
279.6 K	0.1144 kPa
281.3 K	0.1316 kPa
285.2 K	0.1719 kPa
288.3 K	0.22 kPa
292.1 K	0.277 kPa
292.3 K	0.2658 kPa
295.2 K	0.3338 kPa
299 K	0.4239 kPa
299.2 K	0.4202 kPa
302.1 K	0.5212 kPa
306.1 K	0.6926 kPa
309 K	0.8283 kPa and 0.7923 kPa
313 K	1.016 kPa
317 K	1.311 kPa
319.8 K	1.44 kPa
322 K	1.585 kPa
324.9 K	1.97 kPa

C1CCCCNCCC1 [octamethylenimine]
Conditions	vapor or sublimation pressure [kPa]
274.6 K	0.01266
278.3 K	0.01754
283.3 K	0.02575
288.3 K	0.03757
293.2 K	0.05489
298.1 K	0.07468
304.1 K	0.1162
309.1 K	0.1671
313.3 K	0.2073
318.1 K	0.2813
323.4 K	0.3868
